Test results as given in patent US11331304B2, “YAP1 inhibitors and methods” (The Jackson Laboratory, priority 2016, dated 2022).
Entries after “also recorded” stand apart in the source; their conditions may differ.

Experiments:
[1] = target: YAP:TEAD (Homo sapiens, UniProt P46937); conditions: Liu-Chittenden et al. 2012; cited from earlier work
[2] = system: Smo-M2;GFAP-cre medulloblastoma tumor slices; assay: Tumor slice culture ex vivo, tissue viability by Cell Titer Blue; type: cell-based, mouse
Experimental: Fresh tumor tissues were dissected and cut into 250 micrometer (μm) thick slices and cultured at air-media interface in serum-free medium (DMEM/F12, B27, pen/strep) for 8-12 days. Tissue viability was measured by Cell Titer Blue assay (Promega, Madison, Wis.) at 2-4 days intervals. DMSO or drugs were added after each viability reading.

[3] = system: Ptch;p53 and Smo-M2;GFAP-cre medulloblastoma cells; assay: Self-renewal (sphere formation at clonal density) of SHH medulloblastoma tumorspheres; type: cell-based, mouse; conditions: for suppression of self-renewal: Ptch;p53 and Smo-M2;GFAP-cre cells in vitro, n=3; for self-renewal (in words): in vitro
Experimental: (§1) To test YAP function in human cells, primary cells from a SHH subgroup PDX model (MED311) were isolated and treated with VP.
(§2) Primary cells from spontaneous mouse medulloblastoma ([…];p53^−/− or FSMO;GFAPcre) and MED311 PDX model were isolated and cultured in serum-free stem cell medium (DMEM/F12, B27, pen/strep, bFGF9 10 nanograms per milliliter (ng/mL)), and EGF (20 ng/mL). Number of self-renewing stem cells in vitro were measured by plating single cells at a clonal density (<1 cell/μL) and counting spheres >100 μM 7 days later. To establish IC50 values, 3000 mouse medulloblastoma cells were plated in 96 wells and treated varying concentrations of verteporfin and new derivatives were synthesized, in triplicate, and viability was measured using Cell Titer Blue assay (Promega, Madison, Wis.) 3 days after drug treatment.

[4] = system: SMO-M2;GFAP-cre mice; assay: Kaplan-Meier survival of SMO-M2;GFAP-cre mice, intraperitoneal injection; type: in vivo, mouse; conditions: IP injection, versus vehicle (DMSO), N=8 each group
[5] = Solubility of verteporfin derivative compounds in water and buffer (pH = 2); type: physicochemical
[6] = system: MED311 human patient-derived xenograft (PDX) SHH medulloblastoma cells; assay: VP treatment of primary cells from SHH subgroup PDX model; type: cell-based
Experimental: as §1, §2

Chain of YAP:TEAD (P46937 whole entry): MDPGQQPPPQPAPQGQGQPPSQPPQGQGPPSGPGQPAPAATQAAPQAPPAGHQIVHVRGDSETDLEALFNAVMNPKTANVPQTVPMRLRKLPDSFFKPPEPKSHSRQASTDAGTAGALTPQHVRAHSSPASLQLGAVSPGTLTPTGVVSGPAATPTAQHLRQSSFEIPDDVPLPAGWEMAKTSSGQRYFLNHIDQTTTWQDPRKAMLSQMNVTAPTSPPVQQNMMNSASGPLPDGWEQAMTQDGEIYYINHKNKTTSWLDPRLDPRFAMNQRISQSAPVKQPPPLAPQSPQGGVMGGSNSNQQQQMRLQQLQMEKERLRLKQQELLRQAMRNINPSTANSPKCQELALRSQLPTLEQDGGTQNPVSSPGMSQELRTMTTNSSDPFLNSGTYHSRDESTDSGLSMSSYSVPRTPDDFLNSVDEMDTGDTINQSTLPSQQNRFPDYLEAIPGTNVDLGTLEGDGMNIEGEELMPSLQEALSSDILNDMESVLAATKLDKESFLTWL

Structure (SMILES): C=Cc1c(C)c2cc3nc(cc4[nH]c(cc5nc(cc1[nH]2)C(C)=C5CCC(=O)O)c(CCC(=O)OC)c4C)[C@@]1(C)C3=CC=C(C(=O)OC)[C@H]1C(=O)OC [Verteporfin, 3-[(23 S,24R)-14-ethenyl-5-(3-methoxy-3-oxopropyl)-22,23-bis(methoxycarbonyl)-4,10,15,24-tetramethyl-25,26,27,28-tetraazahexacyclo[16.6.1.13,6.18,11.113,16.019,24]octacosa-1,3,5,7,9,11(27),12,14,16,18(25), 19,21-dodecaen-9-yl]propanoic acid]
- YAP:TEAD binding [1]: inhibit YAP:TEAD binding
- response of tumor tissue explants grown as intact slices [2]: significant response
- suppression of self-renewal ([3]; 0.1 μM): ~50%
- self-renewal (in words) ([3]; 100 nM): suppressed self-renewal
- self-renewal (in words) ([3]; 1 μM): completely suppressed self-renewal
- suppression of self-renewal [3]: 100%
- survival [4]: increase survival
- solubility (in words) [5]: poor solubility
- Buffer (pH = 2) result ([5]; phosphate buffer pH = 2): insoluble
- Water result ([5]; water, at the amount per volume in mg/mL): insoluble
- cell morphology ([6]; 24 hours post-VP treatment, listed as VP): significant morphology change; also recorded: morphological changes consistent with apoptosis
- proliferation ([6]; upon VP treatment): reduced proliferation
